# Test results taken from patent publication US5455286A, “Bioactive composition” (priority 1994, dated 1995).
# What was measured:
# in vivo = settings: dog
# Procedure: (§1) The experiments were carried out on male beagle dogs, each roughly 10 kg in weight. […] The dogs were restrained in a dog sling. Approximately 10 mg of propranolol was administered nasally to each dog by spraying an appropriate amount of the present formulations containing propranolol into both nostrils of the dog using a metered dose dispenser (typically 2 sprays over a two minute period). The amount of drug administered nasally was obtained by weighing the dispenser before and after spraying.
# (§2) Blood samples were withdrawn at desired intervals from each dog through a cannula inserted in the cephalic vein. The blood samples were centrifuged immediately after the collection and the plasma samples were stored frozen until assayed. The assay for propranolol consisted of HPLC separation and UV/fluorescence detection.
# (§3) The area under the curve (AUC) has been normalized to the amount of propranolol administered.
# [1] = dog, in vivo, 480 min
# Procedure: as §1, §2, §3
compound,measurement,setting,value
"CC(C)NCC(O)COc1cccc2ccccc12 (centres unmarked) [Propranolol, propranolol]",Tmax,in vivo; iv,0.05 h
same,Cmax,in vivo; po,3 ng/mL
same,Tmax,in vivo; po,2 h
same,bioavailability at 8 h,in vivo; po,4%
same,AUC/IV-AUC,[1],1.00
